Laboratory results taken from ChEMBL document CHEMBL1147222, “Lowdenic acid: a new antifungal polyketide-derived metabolite from a new fungicolous Verticillium sp” (2003).
Values after ≈ are worked out from the molar mass of the structure shown.

How the values were obtained:
Assay type in all cases: functional
Aspergillus flavus [1] = test: Antifungal activity against Aspergillus flavus NRRL 6541 at 250 ug/disk; conditions: read-out: IZ
Aspergillus flavus [2] = test: Antifungal activity against Aspergillus flavus NRRL 6541
Candida albicans = test: Antifungal activity against Candida albicans ATCC 90029 at 200 ug/disk by standard disk assay; conditions: read-out: IZ
Staphylococcus aureus = test: Antibacterial activity against Staphylococcus aureus ATCC 29213 at 200 ug/disk by standard disk assay; conditions: read-out: IZ
Bacillus subtilis = test: Antibacterial activity against Bacillus subtilis ATCC 6051 at 200 ug/disk by standard disk assay; conditions: read-out: IZ

MIC (Aspergillus flavus [2]): 6 µg/mL (≈ 13.4 µM)
Compound: CCCCCCCCCC[C@@H](C)CCC[C@@]1(C)C=C/C(=C2/C(=O)O[C@H](CC(=O)O)C2=O)O1 [LOWDENIC ACID]
zone of inhibition at 250 µg/disc (Aspergillus flavus [1]): 14 mm | zone of inhibition at 200 µg/disc (Candida albicans): 9 mm | zone of inhibition at 200 µg/disc (Staphylococcus aureus): 12 mm | zone of inhibition at 200 µg/disc (Bacillus subtilis): 17 mm
